Assay results from patent publication US20090221082A1, “Microfluidic Evaporators And Determining Physical And/Or Chemical Properties Of Chemical Compounds Therewith” (Rhodia Operations, priority 2005, published 2009).

Assay: Evaporation-induced nucleation and crystal growth of KCl aqueous solutions in microchannel fingers
Format: physicochemical
Source text: The devices used are two-layer PDMS on glass Microsystems (FIG. 1). The microchannels (flowing channel(s)) of the bottom layer are filled with the solution of interest, while air is circulated through the microchannels (evaporation chamber) of the top layer so as to remove the water that pervaporates through the thin membrane of PDMS that separate the two networks where they overlap (thickness e in the 10-30 μm range). Many combinations of geometries for the bottom and top networks can be envisaged. We focus here on the simple “finger” geometry of FIG. 1, a dead end (blind extremity) channel of rectangular cross section (height h, width w, length L) connected to a larger (millimetric) feeding reservoir containing the solution to be concentrated. A terminal section of length L0<L (typically mms to cms) is covered by the water removal network. The operation principle is simple: water in the bottom channel pervaporates through the thin membrane, which induces a compensating flow from the reservoir and concentration of solutes at the finger tip. […]
FIG. 11: Top: view of the chip with 15 microchannels with different evaporation lengths L0 (the bottom of the frame is the end of the evaporation zone). […] Crystal growth is then monitored xf(t). […]

## [Cl-].[K+] [KCl, potassium chloride]
KCl aqueous solution, at this temperature
  nucleation concentration cc: 4.0 ± 0.5 M
From initial crystal growth rate and mass conservation, Te=800±50 s
  solute concentration cx in the growing crystal (crystal density): 20 ± 2 M
